The source of these data is US10988485B2 (Amgen Inc., priority 2018, dated 2021).

Where two headings read alike, the source gives them in different places.

As a reminder, the IC50 is the point on the concentration scale where inhibition reaches its midpoint.

The target in experiment [1] is GDP-bound KRAS protein (aa 1-169), containing both G12C and C118A amino acid substitutions (Homo sapiens, UniProt P01116, C118A/G12C). In words: Coupled Nucleotide Exchange Assay (SOS-mediated nucleotide exchange, AlphaScreen). It counts as biochemical. As to conditions: compound pre-incubation either 5 min or 2 hours (not stated per compound); SOS and GTP added, cRAF AlphaScreen read-out. The protocol: (§1) For compounds in Table 6, the following assay conditions were employed:
Coupled Nucleotide Exchange Assay: Purified GDP-bound KRAS protein (aa 1-169), containing both G12C and C118A amino acid substitutions and an N-terminal His-tag, was pre-incubated in assay buffer (25 mM HEPES pH 7.4, 10 mM MgCl2, and 0.01% Triton X-100) with a compound dose-response titration for either 5 min or 2 hours (see Table 15). Following compound pre-incubation, purified SOS protein (aa 564-1049) and GTP (Roche 10106399001) were added to the assay wells and incubated for an additional 30 min (for 5 min compound pre-incubation) or 1 hour (for 2 hour compound pre-incubation). To determine the extent of inhibition of SOS-mediated nucleotide exchange, purified GST-tagged cRAF (aa 1-149), nickel chelate AlphaLISA acceptor beads (PerkinElmer AL108R), and AlphaScreen glutathione donor beads (PerkinElmer 6765302) were added to the assay wells and incubated for 10 minutes. The assay plates were then read on a PerkinElmer EnVision Multilabel Reader, using AlphaScreen® technology, and data were analyzed using a 4-parameter logistic model to calculate IC50 values.

The test system of experiment [2] is Phosphorylation of ERK1/2 in MIA PaCa-2 cells. In words: Phospho-ERK1/2 MSD Assay. As to conditions: compound 2 or 4 hours, then 10 ng/mL EGF for 10 min, read-out: p-ERK IC50 (MIA-PaCa-2) (converted). It counts as cell-based. The protocol: as §1
Phospho-ERK1/2 MSD Assay: MIA PaCa-2 (ATCC® CRL-1420™) cells were cultured in RPMI 1640 Medium (ThermoFisher Scientific 11875093) containing 10% fetal bovine serum (ThermoFisher Scientific 16000044) and 1× penicillin-streptomycin-glutamine (ThermoFisher Scientific 10378016). Sixteen hours prior to compound treatment, MIA PaCa-2 cells were seeded in 96-well cell culture plates at a density of 25,000 cells/well and incubated at 37° C., 5% CO2. A compound dose-response titration was diluted in growth media, added to appropriate wells of a cell culture plate, and then incubated at 37° C., 5% CO2 for 2 or 4 hours. Following compound treatment, cells were stimulated with 10 ng/mL EGF (Roche 11376454001) for 10 min, washed with ice-cold Dulbecco's phosphate-buffered saline, no Ca^2+ or Mg^2+ (ThermoFisher Scientific 14190144), and then lysed in RIPA buffer (50 mM Tris-HCl pH 7.5, 1% Igepal, 0.5% sodium deoxycholate, 150 mM NaCl, and 0.5% sodium dodecyl sulfate) containing protease inhibitors (Roche 4693132001) and phosphatase inhibitors (Roche 4906837001). Phosphorylation of ERK1/2 in compound-treated lysates was assayed using Phospho-ERK1/2 Whole Cell Lysate kits (Meso Scale Discovery K151DWD) according to the manufacturer's protocol. Assay plates were read on a Meso Scale Discovery Sector imager 6000, and data were analyzed using a 4-parameter logistic model to calculate IC50 values.

[3] abbreviates: Homo sapiens, MIA PaCa-2, MIA PaCa-2 cells.

Sequence of GDP-bound KRAS protein (aa 1-169), containing both G12C and C118A amino acid substitutions (P01116 1-169 isoform P01116-2 G12C/C118A): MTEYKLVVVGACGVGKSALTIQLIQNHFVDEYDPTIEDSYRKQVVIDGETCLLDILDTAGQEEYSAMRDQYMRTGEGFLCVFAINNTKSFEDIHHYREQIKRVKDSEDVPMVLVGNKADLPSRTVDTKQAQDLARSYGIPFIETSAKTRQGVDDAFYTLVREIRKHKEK

Consider `C=CC(=O)N1C[C@H](C)N(C2=NS(=O)(=O)N(c3c(C)cnn3C(C)C)c3nc(-c4ccccc4F)c(Cl)cc32)C[C@H]1C` (single isomer, unassigned) [Example 1-11-2], for which the IC50 is 150 nM in experiment [1] and 330 nM in experiment [2] (MIA PaCa-2 cells).

For `C=CC(=O)N1C[C@H](C)N(C2=NS(=O)(=O)N(c3c(C)ccnc3C(C)C)c3nc(-c4ccccc4C)c(Cl)cc32)C[C@H]1C` (single isomer, unassigned) [Example 1-12-1], the results for the IC50 in experiment [1] and in experiment [2] (setting [3]) were 220 nM and 290 nM, respectively.

Take `C=CC(=O)N1CCN(C2=NS(=O)(=O)N(c3c(C)ccnc3C(C)C)c3nc(-c4ccccc4F)c(Cl)cc32)[C@@H](C)C1` (single isomer, unassigned) [Example 2-2-1]: the IC50 in experiment [1] was 240 nM; in experiment [2] (MIA PaCa-2 cells), 270 nM.

Take `C=CC(=O)N1CCN(C2=NS(=O)(=O)N(c3c(C)ccnc3C(C)C)c3nc(-c4ccccc4F)c(Cl)cc32)[C@@H](C)C1` (single isomer, unassigned) [Example 2-2-2]: the IC50 in experiment [1] is 2980 nM; in experiment [2] (MIA PaCa-2 cells), 1520 nM.

On to `C=CC(=O)N1C[C@H](C)N(C2=NS(=O)(=O)N(c3ccccc3C(C)(C)C)c3nc(-c4ccccc4F)c(Cl)cc32)C[C@H]1C` [Example 1-1], for which the IC50 in experiment [2] (MIA PaCa-2 cells) is 340 nM.

Regarding `C=CC(=O)N1CCN(C2=NS(=O)(=O)N(c3ccccc3C(C)C)c3nc(-c4c(O)cccc4F)c(Cl)cc32)[C@@H](C)C1` [Example 1-2, 1-((3S)-4-(6-chloro-7-(2-fluoro-6-hydroxyphenyl)-2,2-dioxido-1-(2-(2-propanyl)phenyl)-1H-pyrido[2,3-c][1,2,6]thiadiazin-4-yl)-3-methyl-1-piperazinyl)-2-propen-1-one], the figures for the IC50 in experiment [1] and in experiment [2] (setting [3]) were 150 nM and 270 nM, respectively.

Take `C=CC(=O)N1CCN(C2=NS(=O)(=O)N(c3ccccc3C(C)C)c3nc(-c4c(N)cccc4F)c(Cl)cc32)[C@@H](C)C1` [Example 1-3, 1-((3S)-4-(7-(2-amino-6-fluorophenyl)-6-chloro-2,2-dioxido-1-(2-(2-propanyl)phenyl)-1H-pyrido[2,3-c][1,2,6]thiadiazin-4-yl)-3-methyl-1-piperazinyl)-2-propen-1-one]: the IC50 in experiment [1] is 60 nM; in experiment [2] (setting [3]), 70 nM.

Consider `C=CC(=O)N1C[C@H](C)N(C2=NS(=O)(=O)N(c3ccccc3C(C)C)c3nc(-c4c(O)cccc4F)c(Cl)cc32)C[C@H]1C` [Example 1-4, 1-((2R,5S)-4-(6-chloro-7-(2-fluoro-6-hydroxyphenyl)-2,2-dioxido-1-(2-(2-propanyl)phenyl)-1H-pyrido[2,3-c][1,2,6]thiadiazin-4-yl)-2,5-dimethyl-1-piperazinyl)-2-propen-1-one], for which the IC50 is 170 nM in experiment [1] and 160 nM in experiment [2] (setting [3]).

Consider `C=CC(=O)N1C[C@H](C)N(C2=NS(=O)(=O)N(c3scnc3C(C)C)c3nc(-c4c(O)cccc4F)c(Cl)cc32)C[C@H]1C` [Example 1-5, 1-((2R,5S)-4-(6-chloro-7-(2-fluoro-6-hydroxyphenyl)-2,2-dioxido-1-(4-(2-propanyl)-1,3-thiazol-5-yl)-1H-pyrido[2,3-c][1,2,6]thiadiazin-4-yl)-2,5-dimethyl-1-piperazinyl)-2-propen-1-one], for which the IC50 in experiment [1] was 100 nM; in experiment [2] (setting [3]), 110 nM.

Take `C=CC(=O)N1CCN(C2=NS(=O)(=O)N(c3ccccc3C(C)C)c3nc(-c4ccccc4S(C)(=O)=O)c(Cl)cc32)[C@@H](C)C1` [Example 1-9, 1-((3S)-4-(6-chloro-7-(2-(methylsulfonyl)phenyl)-2,2-dioxido-1-(2-(2-propanyl)phenyl)-1H-pyrido[2,3-c][1,2,6]thiadiazin-4-yl)-3-methyl-1-piperazinyl)-2-propen-1-one]: the IC50 was 190 nM in experiment [1] and 180 nM in experiment [2] (setting [3]).

For the compound `C=CC(=O)N1C[C@H](C)N(C2=NS(=O)(=O)N(c3c(C)cnn3C(C)C)c3nc(-c4ccccc4F)c(Cl)cc32)C[C@H]1C` [Example 1-11, 1-((2R,5S)-4-(6-chloro-7-(2-fluorophenyl)-1-(4-methyl-1-(2-propanyl)-1H-pyrazol-5-yl)-2,2-dioxido-1H-pyrido[2,3-c][1,2,6]thiadiazin-4-yl)-2,5-dimethyl-1-piperazinyl)-2-propen-1-one], the half-maximal inhibitory concentration (IC50) in experiment [1] and in experiment [2] (setting [3]) was 200 nM each time.

For the compound `C=CC(=O)N1C[C@H](C)N(C2=NS(=O)(=O)N(c3ccccc3C(C)C)c3nc(-c4ccccc4F)c(Cl)cc32)C[C@H]1C` [Example 2-3, 1-((2R,5S)-4-(6-chloro-7-(2-fluorophenyl)-1-(2-isopropylphenyl)-2,2-dioxido-1H-pyrido[2,3-c][1,2,6]thiadiazin-4-yl)-2,5-dimethylpiperazin-1-yl)prop-2-en-1-one], the IC50 is 180 nM in experiment [1] and 240 nM in experiment [2] (setting [3]).

On to `C=CC(=O)N1CCN(C2=NS(=O)(=O)N(c3c(C(C)C)ncnc3C(C)C)c3nc(-c4ccccc4F)c(Cl)cc32)[C@@H](C)C1` [Example 2-4, (S)-1-(4-(6-chloro-1-(4,6-diisopropylpyrimidin-5-yl)-7-(2-fluorophenyl)-2,2-dioxido-1H-pyrido[2,3-c][1,2,6]thiadiazin-4-yl)-3-methylpiperazin-1-yl)prop-2-en-1-one], for which the IC50 was 290 nM in experiment [1] and 310 nM in experiment [2] (setting [3]).

For the compound `C=CC(=O)N1CCN(C2=NS(=O)(=O)N(c3ccc(CN(C)C)cc3C(C)C)c3nc(-c4ccccc4F)c(Cl)cc32)[C@@H](C)C1` [Example 3-1, 1-((3S)-4-(6-Chloro-1-(4-((dimethylamino)methyl)-2-(2-propanyl)phenyl)-7-(2-fluorophenyl)-2,2-dioxido-1H-pyrido[2,3-c][1,2,6]thiadiazin-4-yl)-3-methyl-1-piperazinyl)-2-propen-1-one], the half-maximal inhibitory concentration (IC50) in experiment [1] is 150 nM; in experiment [2] (setting [3]) it was 90 nM.

Consider `C=CC(=O)N1C[C@H](C)N(C2=NS(=O)(=O)N(c3ccc(CN(C)C)cc3C3CC3)c3nc(-c4ccccc4F)c(Cl)cc32)C[C@H]1C` [Example 6, 1-((2R,5S)-4-(6-Chloro-1-(2-cyclopropyl-4-((dimethylamino)methyl)phenyl)-7-(2-fluorophenyl)-2,2-dioxido-1H-pyrido[2,3-c][1,2,6]thiadiazin-4-yl)-2,5-dimethyl-1-piperazinyl)-2-propen-1-one], for which the half-inhibitory concentration (IC50) in experiment [1] and in experiment [2] (setting [3]) was 150 nM throughout.

Regarding `C=CC(=O)N1C[C@H](C)N(C2=NS(=O)(=O)N(c3c(C)cc(CN(C)C)cc3C(C)C)c3nc(-c4c(N)cccc4F)c(Cl)cc32)C[C@H]1C` [Example 8, 1-((2R,5S)-4-(7-(2Amino-6-fluorophenyl)-6-chloro-1-(4-((dimethylamino)methyl)-2-methyl-6-(2-propanyl)phenyl)-2,2-dioxido-1H-pyrido[2,3-c][1,2,6]thiadiazin-4-yl)-2,5-dimethyl-1-piperazinyl)-2-propen-1-one], the half-inhibitory concentration (IC50) in experiment [1] was 190 nM; in experiment [2] (MIA PaCa-2 cells), 270 nM.

As to `C=CC(=O)N1C[C@H](C)N(C2=NS(=O)(=O)N(c3c(C)cc(CN(C)C)cc3C(C)C)c3nc(-c4c(N)cccc4F)c(Cl)cc32)C[C@H]1C` [Example 8-1, 1-((2R,5S)-4-(7-(2-amino-6-fluorophenyl)-6-chloro-1-(4-((dimethylamino)methyl)-2-methyl-6-(2-propanyl)phenyl)-2,2-dioxido-1H-pyrido[2,3-c][1,2,6]thiadiazin-4-yl)-2,5-dimethyl-1-piperazinyl)-2-propen-1-one], the IC50 in experiment [1] and in experiment [2] (MIA PaCa-2 cells) was 80 nM in each case.

Regarding `C=CC(=O)N1C[C@H](C)N(C2=NS(=O)(=O)N(c3c(C)cc(CN(C)C)cc3C(C)C)c3nc(-c4c(N)cccc4F)c(Cl)cc32)C[C@H]1C` [Example 8-2, 1-((2R,5S)-4-(7-(2-amino-6-fluorophenyl)-6-chloro-1-(4-((dimethylamino)methyl)-2-methyl-6-(2-propanyl)phenyl)-2,2-dioxido-1H-pyrido[2,3-c][1,2,6]thiadiazin-4-yl)-2,5-dimethyl-1-piperazinyl)-2-propen-1-one], the IC50 in experiment [1] was 1460 nM.
